Measurements taken from ChEMBL document CHEMBL4014353, “1,2,4-Triazolo-[1,5-a]pyridine HIF Prolylhydroxylase Domain-1 (PHD-1) Inhibitors With a Novel Monodentate Binding Interaction” (J Med Chem, 2017).
Values after ≈ are worked out from the molar mass of the structure shown.

Experiments:
[1] = Protein binding in mouse plasma; type: ADME, cell-free; conditions: read-out: PPB (converted)
[2] = Ratio of unbound brain to plasma concentration in C57BL/6 mouse at 3 mg/kg, po or 0.5 mg/kg, iv administered as cassette dose; type: ADME, organism-based; conditions: brain and plasma, read-out: K(p,uu,brain)
[3] = Oral bioavailability in C57BL/6 mouse at 3 mg/kg administered as cassette dose; type: ADME, organism-based; conditions: in vivo
[4] = Clearance in C57BL/6 mouse at 0.5 mg/kg, iv administered as cassette dose; type: ADME, organism-based; conditions: in vivo
[5] = Kinetic solubility of the compound by LC-UV/MS analysis; type: physicochemical; conditions: read-out: Kinetic_solubility
[6] = Cmax in C57BL/6 mouse at 3 mg/kg, po administered as cassette dose; type: ADME, organism-based; set-up: dose 3 mg/kg, route oral; conditions: in vivo
[7] = Ratio of drug level in C57BL/6 mouse brain to plasma at 3 mg/kg, po or 0.5 mg/kg, iv administered as cassette dose; type: ADME, organism-based; conditions: brain and plasma, read-out: BPR
[8] = Permeability of the compound after 5 hrs by PAMPA; type: physicochemical; conditions: read-out: permeability
[9] = AUC (0 to t) in C57BL/6 mouse at 3 mg/kg, po administered as cassette dose; type: ADME, organism-based; conditions: in vivo

| fraction unbound [1] | Kp uu [2] | bioavailability [3] [%] | clearance [4] [mL/min/kg] | solubility kinetic [5] [µM] | Cmax [6] [µM] | Kp [7] | Papp at 5 h [8] [×10⁻⁶ cm/s] | AUC(0-t) [9] [ng·h/mL] | Compound |
| --- | --- | --- | --- | --- | --- | --- | --- | --- | --- |
| 0.302 | 0.39 | 39 | 0.48 | 151 (≈ 37.6 µg/mL) | 14.8 | 0.21 | 5.9 | 40000 | Cc1cc(C#N)ccc1-c1cc(N)cc2ncnn12 |
| 0.21 | 1.59 | 100 | 31.6 | 189 (≈ 44.3 µg/mL) | 5.58 | 0.88 | 40.9 | 1870 | Cc1cc(C#N)ccc1-c1cccc2ncnn12 |
| 0.486 | 0.02 | 100 | 17.5 | 99 (≈ 28.8 µg/mL) | 5 | 0.03 | 2.9 | 3660 | CC(=O)Nc1cc(-c2ccc(C#N)cc2C)n2ncnc2c1 |
| 0.287 | 1.11 | 40 | 108 | 44 (≈ 9.69 µg/mL) | 0.8 | 0.95 | 24.6 | 176 | N#Cc1ccc(-c2cccc3ncnn23)cc1 |
